Here are results for three compounds from US12502391B2, “Multi-kinase inhibitors of VEGF and TGF beta and uses thereof” (AIVIVA BIOPHARMA, INC., priority 2018, dated 2025).

Assay [1] has as its system full-thickness excision wounds. The assay is described as follows: Histology of full-thickness excision wounds in Yucatan minipigs (fibroplasia, neovascularization). The assay is classed as in vivo. The settings on record: for Neovascularization; dermis, average score / Fibroplasia; dermis, average score: Yucatan minipig wound sites after two doses, Day 59, scale 1 (minimal) to 5 (severe); for Neovascularization; dermis, average score: untreated 2.33; for Fibroplasia; dermis, average score: untreated 3.33. From the text:
(§1) In this experiment, multiple full-thickness excision wounds were made to the dorsum of Yucatan minipigs, and the wound sites were allowed to be re-epithelialized adequately. At four weeks post-wound, the wound sites had normal to pink vascularity and had pliability. Epidermal hyperplasia was observed, as expected for regenerative responses in the full-thickness wounds.
(§2) On Day 28 post-wound, a dose (e.g., 1%) of axitinib, nintedanib, riociguat, sorafenib, sunitinib, and/or lenvatinib was administered into the dermal tissue at or around the wound sites, once every two weeks on two occasions. One wound site was left untreated as the control for each pig. Please note that the particular parameters in this example are only for illustration. One skilled in the art would appreciate that the dosages, administration methods, treatment regimen, and the administration sites may be varied to achieve similar results.
On Day 59 post wound, the minipigs were sacrificed and dermal tissues were collected for qualitative and quantitative evaluation using hematoxylin and eosin, and Mason's Trichrome staining. Dermal fibroplasia was characterized by increased numbers of fibroblasts in the dermis suspended in variable amounts of collagen in wounds.

For assay [2], the system named is TGF-β1 mRNA. Briefly: TGF-β1 mRNA expression (qRT-PCR) in Yucatan pig skin wound sites. The settings on record: Yucatan pig skin wound sites after treatments; for TGF-β1 mRNA Expression Fold Relative to Untreated Unwounded Control: individual animals 7369, 7370, 7371, duplicate sets 1 and 2, beta actin reference gene. The assay is classed as in vivo, Yucatan minipigs.
From the text: as §1, §2
In addition, total mRNA was isolated from skin biopsies of the treated wound sites and the untreated unwounded sites of the pigs. The mRNA samples were used to prepare cDNA and analyzed via qRT-PCR. The TGF-β1 expression levels were assessed using beta actin as a reference gene.

For assay [3], the system named is TGF beta1 mRNA. The assay is described as follows: TGF beta1 mRNA expression (qRT-PCR) in rabbit ear hypertrophic scar model. The assay is classed as in vivo, New Zealand white rabbits. The settings on record: 1% w/w, 100 μl intradermal on days 15 and 29, harvest Day 43. As for the experimental part: The objective of this study was to examine the effect of test compounds on wound healing and TGF beta expression after dermal injury in a rabbit ear hypertrophic scar model.
In New Zealand white rabbits, maintained under a surgical plane of anesthesia, trauma stimulation of the skin on the ventral surface of both ears is initiated on Day 1. Trauma sites are evaluated on Days 8, 15, 22, 29, 36, and 43. On days 15 and 29, each site is dosed with test compounds (e.g., 1% w/w, 100 μl) by intradermal or intralesional injections.
Mammals are euthanized on Day 43, and the trauma sites are harvested and frozen for TGF beta analysis using quantitative RT-PCR (qRT-PCR) (e.g., A. K. Johnson et al., Dev. Comp. Immunol., 2006; 30(5): 473-84). TGF beta1 mRNA expression levels in treated trauma samples are compared to the expression level in the untreated trauma sample.

In assay [4] the test system is TGF-beta 1. Briefly: Dermal TGFb1 levels (ELISA) after linear incisional wounds in minipigs. The assay is classed as in vivo, Gottingen Minipigs. The settings on record: approximately 16 mg intradermally once per incisional wound, biopsies days 4, 7, 9 post-dosing. From the text: The purpose of this study was to evaluate the topical effects of axitinib, nintedanib, sorafenib and lenvatinib when administered via intradermal injection to the dorsal skin along linear incisions of minipigs. Linear incisional wound was made to elicit inflammatory and wound healing process in the skin. After dosing, mammals were observed post dose for 9 days to assess the levels of TGFb1 expressions in the skin.
Three male Gottingen Minipigs® dosed once via intradermal injection along the edges of each of the linear incision wound sites for each mammal (wounds on the dorsum, perpendicular to the spine, approximately 3 cm in length and 3 cm distance from the spine). Each incisional wound received approximately 16 mg of the test compound intradermally once along both sides of the linear wound.
On days of 4, 7, and 9 post-dosing, one 4 mm dermal punch biopsy was collected for each incisional wound and processed for TGF-beta 1 analysis with ELISA, using a commercial kit (e.g., the kit from Thermo Fisher or other vendors).

The test system of assay [5] is suture-induced ocular fibrosis. Briefly: Rabbit corneal suture-induced ocular fibrosis model. The assay is classed as in vivo, rabbits. The following applies: 0.3% w/v eyedrops 35 uL three times daily for 10 days. An excerpt: In order to investigate the anti-fibrotic effect of test compounds following wounding in the eye, a suture-induced ocular fibrosis model was used. Suture was placed intrastromally under a microscope in the cornea of rabbits. In each eye, one 9.0 silk suture was placed, in a vertical position, temporal to the corneal center and a second suture was placed nasal to the corneal center. Each suture had two stromal incursions approximately 2 mm from the limbus. Test compounds having certain spectrum of multikinase inhibition activities and/or vehicle were topically instilled (35 uL/eye) in the eyes three times daily for 10 days the day following surgery. The treatment groups include vehicle, nintedanib (0.3%, w/v), pirfenidone (1%, w/v), riociguat (0.3%, w/v), sorafenib (0.3%, w/v) and lenvatinib (0.3%, w/v). Six left eyes were used per treatment group.
The animals were sacrificed on Day 11 and the eyes enucleated and dissected for histopathological evaluation.

Assay [6] concerns benign prostate hyperplasia. Briefly: Testosterone and phenylephrine induced benign prostate hyperplasia in rats. The assay is classed as in vivo, Wistar rats. On the set-up: key to epithelial hyperplasia score, dorsolateral prostate, representative image / epithelial hyperplasia score, ventral prostate, representative image: severity grade 0 = not present to 5 = severe. The settings on record: TE and PE induced rats; for epithelial hyperplasia score, dorsolateral prostate, representative image / epithelial hyperplasia score, ventral prostate, representative image: intra-prostate injection 0.4 ml on days 1 and 18 (1% w/w; doxazosin mesylate 0.5%), severity grade 0 (not present) through 5 (severe), induced vehicle score=4; for glandular hyperplasia compared to untreated TE/PE induced prostates: intra-prostate injection on days 1 and 18. As for the experimental part: BPH is a true hyperplastic process. Histologic studies have documented an increase in cell number. A study was conducted, therefore, to determine the effects of test compounds and vehicle on testosterone (TE) and phenylephrine (PE) induced benign prostate hyperplasia in rats. Male Wistar rats were induced with testosterone (2 mg/kg) plus phenylephrine (5 mg/kg) administered daily by subcutaneous injection on days 5 through 32. Vehicle or test compounds (all at 1% w/w), nintedanib, sunitinib, lenvatinib, and 0.5% doxazosin mesylate, were administered by intra-prostate injection (0.4 ml) in dorsolateral and ventral lobes on days 1 and 18. Animals were euthanized on day 32. Body weights were determined and prostate glands were harvested. The experimental design is outlined in Table 6.
At necropsy, the ventral and dorsolateral lobes of the prostate were separated and then cut into halves. The left halves were fixed in 10% neutral buffered formalin, sectioned, and stained with Hematoxylin and Eosin (H&E). Histological changes in these sections were scored. Epithelial hyperplasia was recognized as an increase in epithelial cells within normal-appearing gland profiles, primarily reflected by stratification of epithelial cells and increased presence of epithelial tufting and papillary projections. A severity grade of 0 (not present) through 5 (severe) was assigned to each sample.

“And” between values parts separate entries of the source, which are not always exact repeats. Identical values can stand only once.

As to `CNC(=O)c1cc(Oc2ccc(NC(=O)Nc3ccc(Cl)c(C(F)(F)F)c3)cc2)ccn1` [sorafenib], in assay [1], the “Neovascularization; dermis, average score” value (“Neovascularization; dermis” below) is listed as “(2.33)” and the “Fibroplasia; dermis, average score” value is on record as “(3.00)”. In assay [2], the “reduction of TGF-β1 mRNA expression levels at treated wounds” value is reported as “most effective”; the “TGF-β1 mRNA Expression Fold Relative to Untreated Unwounded Control” value is 0.84 fold and 0.60 fold and 0.53 fold and 0.43 fold and 0.55 fold and 0.89 fold. Further, in assay [3], the “mean folds of TGF beta mRNA expression versus untreated wound sample” value (“mean folds” below) is given as “lower than the expression level in the untreated wound sample”. For the same compound, in assay [4], the “suppression of dermal TGF beta 1 expression over time” value (from here on “suppression … over time”) is reported as “not as effective”. Also, the “areas of neovascularization on the corneal surface” value (“areas of neovascularization” below) in assay [5] was “inhibition of corneal neovascularization”.
In the case of `COc1cc2nccc(Oc3ccc(NC(=O)NC4CC4)c(Cl)c3)c2cc1C(N)=O` [lenvatinib], in assay [1], the “Neovascularization; dermis” value was “(2.33)” and the “Fibroplasia; dermis, average score” value is reported as “(3.00)”. For the same compound, the “TGF-β1 mRNA Expression Fold Relative to Untreated Unwounded Control” value in assay [2] is 2.27 fold and 0.62 fold and 0.89 fold and 0.38 fold and 0.69 fold and 2.02 fold. In addition, in assay [3], the “mean folds” value was “lower than the expression level in the untreated wound sample”. The “suppression … over time” value in assay [4] is “very effective in suppressing the expression of TGF beta 1”. In assay [5], the “alpha SMA (smooth muscle actin) staining by immunohistochemistry” value is listed as “significantly reduced alpha SMA (smooth muscle actin) staining”, the “areas of neovascularization” value is “efficacious in reducing the areas of neovascularization” and the “fibroplasia and/or collagen density by histological staining” value was “significantly reduced fibroplasia and/or collagen density”. In addition, in assay [6], the “epithelial hyperplasia score, dorsolateral prostate, representative image” value was 2; the “epithelial hyperplasia score, ventral prostate, representative image” value was 3; the “glandular hyperplasia compared to untreated TE/PE induced prostates” value is “demonstrated reduction of glandular hyperplasia”.
With `COC(=O)c1ccc2c(c1)NC(=O)/C2=C(\Nc1ccc(N(C)C(=O)CN2CCN(C)CC2)cc1)c1ccccc1` [nintedanib], in assay [1], the “Neovascularization; dermis” value is “(1.67)” and the “Fibroplasia; dermis, average score” value is “(2.33)”. In addition, in assay [1] (Yucatan minipig, two biweekly treatments), the “neovascularization and dermal fibroplasia relative to the untreated wound” value was “noticeably reduced neovascularization with a corresponding reduced dermal fibroplasia”. In assay [2], the “reduction of TGF-β1 mRNA expression levels at treated wounds” value is “most effective”; the “TGF-β1 mRNA Expression Fold Relative to Untreated Unwounded Control” value is 0.70 fold and 0.66 fold and 0.55 fold and 0.56 fold and 0.63 fold and 0.87 fold. Besides, in assay [3], the “mean folds” value is listed as “lower than the expression level in the untreated wound sample”. In assay [4], the “suppression … over time” value was “very effective in suppressing the expression of TGF beta 1”. Further, in assay [5], the “alpha SMA (smooth muscle actin) staining by immunohistochemistry” value is recorded as “significantly reduced alpha SMA (smooth muscle actin) staining”, the “areas of neovascularization” value is recorded as “efficacious in reducing the areas of neovascularization” and the “fibroplasia and/or collagen density by histological staining” value is on record as “significantly reduced fibroplasia and/or collagen density”. Moreover, in assay [6], the “epithelial hyperplasia score, dorsolateral prostate, representative image” value came to 3; the “epithelial hyperplasia score, ventral prostate, representative image” value is on record as 3; the “glandular hyperplasia compared to untreated TE/PE induced prostates” value was “demonstrated reduction of glandular hyperplasia”.
